# Data taken from the supplement of paper PMC10307832.
# Tests used:
# Experiment in all cases: relative viability (nuclei count vs DMSO), 5 days (fraction); higher = more cells survive
# [1] = compound: CC[C@H](C)N1C=C(C2=C(C=C(C=C21)C3=CN=C(C=C3)N4CCNCC4)C(=O)NCC5=C(C=C(NC5=O)C)C)C [GSK126] + CCNC(=O)c1noc(-c2cc(C(C)C)c(O)cc2O)c1-c1ccc(CN2CCOCC2)cc1 [Luminespib] (partner 0.01 µM)
# In short: (§1)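 Nuclei were stained with Hoechst during a one-step fixation (final 0.05% Triton X-100, 1% formaldehyde, 1 ug/ml Hoechst) carried out 5 days after dosing, then counted on 4× images. The cells, lung cancer lines in 1536-well plates, had been dosed by pin tool the day after seeding with one drug alone or a fixed anchor-drug dose plus five library-drug doses (not always all listed) in √10 steps. Relative viability is the nuclei count in treated wells divided by that in vehicle wells, and each value is the median of duplicate plates.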
# [2] = compound: C1CC(C1)(C(=O)O)C(=O)O.[NH2-].[NH2-].[Pt+2] [Carboplatin] + Nc1nc2[nH]cc(CCc3ccc(C(=O)N[C@@H](CCC(=O)O)C(=O)O)cc3)c2c(=O)[nH]1 [Pemetrexed] (partner 0.2 µM)
# In short: as §1
# [3] = compound: C1CC(C1)(C(=O)O)C(=O)O.[NH2-].[NH2-].[Pt+2] [Carboplatin] + CC(=O)Nc1cccc(-n2c(=O)n(C3CC3)c(=O)c3c(Nc4ccc(I)cc4F)n(C)c(=O)c(C)c32)c1 [Trametinib] (partner 0.02 µM)
# In short: as §1
# [4] = compound: CC[C@H](C)N1C=C(C2=C(C=C(C=C21)C3=CN=C(C=C3)N4CCNCC4)C(=O)NCC5=C(C=C(NC5=O)C)C)C [GSK126] + NC(=O)Nc1cc(-c2cccc(F)c2)sc1C(=O)N[C@H]1CCCNC1 [AZD7762] (partner 0.2 µM)
# In short: as §1
Cell Line,relative viability ([1]; first compound 0.08 µM),relative viability ([1]; first compound 0.253 µM),relative viability ([1]; first compound 0.8 µM),relative viability ([1]; first compound 2.53 µM),relative viability ([1]; first compound 8 µM),relative viability ([2]; first compound 0.08 µM),relative viability ([2]; first compound 0.253 µM),relative viability ([2]; first compound 0.8 µM),relative viability ([2]; first compound 2.53 µM),relative viability ([2]; first compound 8 µM),relative viability ([3]; first compound 0.08 µM),relative viability ([3]; first compound 0.253 µM),relative viability ([3]; first compound 0.8 µM),relative viability ([3]; first compound 2.53 µM),relative viability ([3]; first compound 8 µM),relative viability ([4]; first compound 0.08 µM),relative viability ([4]; first compound 0.253 µM),relative viability ([4]; first compound 0.8 µM),relative viability ([4]; first compound 2.53 µM),relative viability ([4]; first compound 8 µM)
SK-LU-1,0.194,0.192,0.215,0.182,0.214,1.11,0.937,0.958,0.899,0.676,0.584,0.525,0.485,0.441,0.356,–,–,–,–,–
COR-L 105,1.01,0.74,0.78,0.734,0.839,1.13,1.27,1.18,0.854,0.615,0.472,0.445,0.441,0.456,0.442,–,–,–,–,–
COR-L23,0.752,0.702,0.614,0.637,0.608,0.188,0.202,0.192,0.193,0.198,0.619,0.645,0.559,0.509,0.229,–,–,–,–,–
NCI-H3122,0.0614,0.0957,0.0787,0.0846,0.103,0.198,0.202,0.189,0.191,0.183,0.227,0.259,0.251,0.251,0.226,0.968,1.01,0.956,1.03,1.01
NCI-H23,0.224,0.17,0.257,0.226,0.208,0.707,0.648,0.634,0.564,0.631,0.414,0.425,0.364,0.366,0.389,0.248,0.214,0.208,0.29,0.205
PC-3 [JPC-3],0.75,0.728,0.745,0.708,0.734,1.28,0.986,1.02,0.939,0.889,0.781,0.67,0.628,0.616,0.65,0.855,0.855,0.957,0.871,0.766
NCI-H2228,0.173,0.12,0.116,0.118,0.205,0.397,0.338,0.311,0.376,0.313,0.678,0.575,0.616,0.543,0.344,–,–,–,–,–
NCI-H358,0.39,0.382,0.366,0.422,0.283,0.179,0.21,0.188,0.16,0.174,0.145,0.148,0.121,0.16,0.14,0.552,0.471,0.482,0.768,0.476
NCI-H2342,0.731,0.875,0.799,0.857,0.878,0.786,0.844,0.791,0.834,0.762,0.825,0.891,0.903,0.924,0.81,0.543,0.425,0.477,0.619,0.58
